# Data from EP1247803A2, “Indolinone compounds suitable for modulation of protein kinases” (Sugen, Inc., priority 1996, dated 1998).
# Assays:
# FLK-1 receptor = target: T1, FLK-1 receptor (Mus musculus, UniProt P35918); test: FLK-1 ELISA (kinase activity of the FLK-1 receptor in FLK-1/NIH3T3 cells, VEGF stimulated); assay type: cell-based; parameters: concentration or dose not given beside the values
# T1 construct: expressed in transfected cells; host or cells: NIH3T3 C7#3
# Summary of the method: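 FLK-1-expressing NIH3T3 C7#3 cells, starved overnight in 0.1% FBS medium, were treated with compounds at a 1:200 final dilution (0.5% DMSO) for 2 h at 37 °C, with VEGF stimulation. FLK-1 kinase activity was read by ELISA on anti-rabbit IgG plates using affinity-purified anti-FLK-1 antiserum.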
# PDGF-R = PDGF-R (Homo sapiens, UniProt P09619); test: PDGF-R ELISA; assay type: cell-based
# Sequence of PDGF-R (P09619 33-1106, species assumed): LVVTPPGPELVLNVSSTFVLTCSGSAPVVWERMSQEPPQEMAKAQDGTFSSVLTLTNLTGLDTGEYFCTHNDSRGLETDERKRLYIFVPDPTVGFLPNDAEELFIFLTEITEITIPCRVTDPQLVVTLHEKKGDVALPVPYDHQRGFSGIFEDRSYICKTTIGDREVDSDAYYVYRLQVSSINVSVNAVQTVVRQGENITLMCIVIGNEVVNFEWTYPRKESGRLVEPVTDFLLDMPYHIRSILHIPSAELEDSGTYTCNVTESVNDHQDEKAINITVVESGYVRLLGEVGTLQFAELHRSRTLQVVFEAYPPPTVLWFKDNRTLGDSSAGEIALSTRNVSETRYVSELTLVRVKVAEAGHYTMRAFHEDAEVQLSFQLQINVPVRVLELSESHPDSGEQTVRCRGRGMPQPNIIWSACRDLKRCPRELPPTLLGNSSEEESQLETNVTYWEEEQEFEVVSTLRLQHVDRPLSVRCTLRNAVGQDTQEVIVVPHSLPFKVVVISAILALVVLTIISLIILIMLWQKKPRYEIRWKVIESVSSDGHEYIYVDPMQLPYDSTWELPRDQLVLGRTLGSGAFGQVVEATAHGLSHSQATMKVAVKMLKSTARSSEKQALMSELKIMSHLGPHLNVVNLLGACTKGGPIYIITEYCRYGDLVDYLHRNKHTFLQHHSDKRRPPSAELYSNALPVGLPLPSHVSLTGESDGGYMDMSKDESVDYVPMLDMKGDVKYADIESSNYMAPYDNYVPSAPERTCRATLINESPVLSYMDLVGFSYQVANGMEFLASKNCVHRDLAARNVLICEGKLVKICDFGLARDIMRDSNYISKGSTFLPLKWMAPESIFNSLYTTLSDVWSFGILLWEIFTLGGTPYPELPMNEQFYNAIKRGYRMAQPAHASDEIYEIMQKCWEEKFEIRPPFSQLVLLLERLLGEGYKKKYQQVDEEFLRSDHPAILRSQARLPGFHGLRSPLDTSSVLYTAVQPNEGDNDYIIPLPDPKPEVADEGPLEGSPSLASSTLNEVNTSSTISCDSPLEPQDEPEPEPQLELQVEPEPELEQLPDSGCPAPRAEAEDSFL
# Description: A PDGF-R ELISA is described in International Patent Publication No. WO 96/40116, published December 19, 1996 by Tang et al.
# T1 sequence (P35918 20-1345): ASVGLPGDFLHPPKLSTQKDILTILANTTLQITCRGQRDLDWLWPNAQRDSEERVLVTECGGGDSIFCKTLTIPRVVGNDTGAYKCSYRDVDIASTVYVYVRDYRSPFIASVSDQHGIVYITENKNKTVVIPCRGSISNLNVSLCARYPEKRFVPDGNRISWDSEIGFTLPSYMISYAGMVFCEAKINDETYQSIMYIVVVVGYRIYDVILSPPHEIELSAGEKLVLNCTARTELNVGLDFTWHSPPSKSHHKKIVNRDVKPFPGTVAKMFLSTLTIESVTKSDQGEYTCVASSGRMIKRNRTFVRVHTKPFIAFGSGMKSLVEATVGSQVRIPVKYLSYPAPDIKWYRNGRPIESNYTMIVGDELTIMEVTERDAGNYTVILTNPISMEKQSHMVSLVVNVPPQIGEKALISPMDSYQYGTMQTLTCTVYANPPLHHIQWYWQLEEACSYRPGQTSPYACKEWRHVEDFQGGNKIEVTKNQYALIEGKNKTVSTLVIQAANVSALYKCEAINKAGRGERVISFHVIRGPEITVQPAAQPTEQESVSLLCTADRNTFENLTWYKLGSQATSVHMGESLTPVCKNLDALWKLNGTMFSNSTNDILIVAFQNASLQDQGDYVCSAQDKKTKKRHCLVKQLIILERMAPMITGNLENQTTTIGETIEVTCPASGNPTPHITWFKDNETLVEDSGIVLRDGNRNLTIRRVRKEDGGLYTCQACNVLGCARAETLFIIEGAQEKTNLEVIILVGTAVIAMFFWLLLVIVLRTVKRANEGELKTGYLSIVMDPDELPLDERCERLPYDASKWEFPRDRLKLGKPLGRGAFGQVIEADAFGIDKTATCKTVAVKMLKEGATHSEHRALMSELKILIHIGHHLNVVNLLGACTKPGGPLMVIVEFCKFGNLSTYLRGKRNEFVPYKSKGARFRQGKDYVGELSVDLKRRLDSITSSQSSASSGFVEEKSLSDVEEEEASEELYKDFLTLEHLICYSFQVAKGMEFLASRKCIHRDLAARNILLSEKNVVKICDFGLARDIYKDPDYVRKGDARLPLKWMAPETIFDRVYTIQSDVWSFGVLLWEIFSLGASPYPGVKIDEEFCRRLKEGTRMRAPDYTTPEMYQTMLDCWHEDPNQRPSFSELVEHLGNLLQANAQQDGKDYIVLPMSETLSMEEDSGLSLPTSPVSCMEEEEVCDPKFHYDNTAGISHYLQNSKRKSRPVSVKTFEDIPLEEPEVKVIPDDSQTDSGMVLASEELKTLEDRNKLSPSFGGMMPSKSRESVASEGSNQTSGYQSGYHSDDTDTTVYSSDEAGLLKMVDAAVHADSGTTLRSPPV
SMILES,Fik Kinase %Inhibition (FLK-1 receptor),PDGF Kinase %Inhibition (PDGF-R)
CNS(=O)(=O)c1ccc2c(c1)C(=Cc1cc(Br)ccc1O)C(=O)N2 [10733/D09],9.8%,33.8%
Cc1c(Br)ccc2c1C(=Cc1cc(Br)ccc1O)C(=O)N2 [10733/C09],-18.0%,91.9%
COc1c(C(C)(C)C)cc(C=C2C(=O)Nc3ccc(I)cc32)cc1C(C)(C)C [10733/B04],-3.3%,24.9%
O=C1Nc2c(Br)cc(Br)cc2C1=Cc1cc(Br)ccc1O [10733/A09],-11.9%,-7.6%
CNS(=O)(=O)c1ccc2c(c1)C(=Cc1cc(I)c(OCc3ccccc3)c(C(C)(C)C)c1)C(=O)N2 [10733/D02],3.1%,17.6%
Cc1cc(C=C2C(=O)Nc3c(Br)cc(Br)cc32)cc(C)c1OCc1ccccc1 [10733/A07],-27.4%,-12.9%
COc1c(O)ccc(C=C2C(=O)Nc3ccc(Br)c(C)c32)c1[N+](=O)[O-] [10733/C11],42.8%,62.2%
COc1c(C(C)C)cc(C=C2C(=O)Nc3ccc(CCCl)cc32)cc1C(C)C [10732/G03],0.8%,36.1%
CC(C)(C)c1cc(C=C2C(=O)Nc3ccc(S(=O)(=O)N4CCOCC4)cc32)cc(Cl)c1OCc1ccccc1 [10732/F10],14.1%,15.9%
COc1c(Br)cc(C=C2C(=O)Nc3ccc(CCCl)cc32)cc1C(C)(C)C [10732/G07],4.6%,21.4%
COc1c([N+](=O)[O-])cc(C=C2C(=O)Nc3c(Br)cc(Br)cc32)cc1C(C)(C)C [10733/A03],45.0%,23.2%
CC(C)(C)c1cc(C=C2C(=O)Nc3ccc(CCCl)cc32)ccc1OCc1ccccc1 [10732/G06],26.5%,0.2%
CNS(=O)(=O)c1ccc2c(c1)C(=Cc1cc(C(C)(C)C)c(OC)c(C(C)(C)C)c1)C(=O)N2 [10733/D04],15.5%,26.5%
COc1c(Cl)cc(C=C2C(=O)Nc3ccc(CCCl)cc32)cc1C(C)(C)C [10732/G09],16.9%,9.8%
CNS(=O)(=O)c1ccc2c(c1)C(=Cc1cc(C)c(OC)c(C)c1)C(=O)N2 [10733/D06],17.9%,1.3%
Cc1c(Br)ccc2c1C(=Cc1cc(C(C)(C)C)c(OCc3ccccc3)c(C(C)(C)C)c1)C(=O)N2 [10733/C05],11.5%,11.1%
CC(C)(C)c1cc(C=C2C(=O)Nc3ccc(CCCl)cc32)cc(Cl)c1OCc1ccccc1 [10732/G10],14.0%,20.4%
COc1c([N+](=O)[O-])cc(C=C2C(=O)Nc3ccc(I)cc32)cc1C(C)(C)C [10733/B03],3.1%,35.8%
COc1cc(Br)cc(C=C2C(=O)Nc3ccc(Br)c(C)c32)c1O [10733/C08],-28.5%,-3.6%
CNS(=O)(=O)c1ccc2c(c1)C(=Cc1ccc(O)c(OC)c1[N+](=O)[O-])C(=O)N2 [10733/D11],1.0%,-4.0%

SMILES,Fik Kinase %Inhibition (FLK-1 receptor),PDGF Kinase %Inhibition (PDGF-R)
COc1c(C(C)C)cc(C=C2C(=O)Nc3ccc(S(=O)(=O)N4CCOCC4)cc32)cc1C(C)C [10732/F03],31.9%,51.8%
COc1c(C)cc(C=C2C(=O)Nc3ccc(Br)c(C)c32)cc1C [10733/C06],4.7%,20.0%
Cc1c(Br)ccc2c1C(=Cc1cc(I)c(OCc3ccccc3)c(C(C)(C)C)c1)C(=O)N2 [10733/C02],5.8%,15.1%
COc1ccc(C=C2C(=O)Nc3ccc(CCCl)cc32)cc1C(C)(C)C [10732/G05],17.2%,15.4%
COc1c(Cl)cc(C=C2C(=O)Nc3ccc(S(=O)(=O)N4CCOCC4)cc32)cc1C(C)(C)C [10732/F09],25.6%,25.5%
CC(C)(C)c1cc(C=C2C(=O)Nc3ccc(I)cc32)cc(C(C)(C)C)c1OCc1ccccc1 [10733/B05],-1.1%,27.3%
COc1ccc(C=C2C(=O)Nc3ccc(S(=O)(=O)Nc4ccc(C(F)(F)F)cc4)cc32)cc1C(C)(C)C [10732/E05],18.7%,41.1%
CNS(=O)(=O)c1ccc2c(c1)C(=Cc1cc(C)c(OCc3ccccc3)c(C)c1)C(=O)N2 [10733/D07],-1.4%,0.9%
O=C1Nc2ccc(S(=O)(=O)N3CCOCC3)cc2C1=CC(c1cccs1)C(F)(F)F (centres unmarked) [10732/F02],7.0%,-9.4%
CC(C)(C)c1cc(C=C2C(=O)Nc3ccc(S(=O)(=O)N4CCOCC4)cc32)cc(Br)c1OCc1ccccc1 [10732/F08],12.6%,14.9%
Cc1c(Br)ccc2c1C(=Cc1cc([N+](=O)[O-])ccc1O)C(=O)N2 [10733/C10],-7.6%,-6.4%
COc1c(I)cc(C=C2C(=O)Nc3ccc(S(=O)(=O)N4CCOCC4)cc32)cc1C(C)(C)C [10732/F11],21.9%,77.5%
CC(C)(C)c1cc(C=C2C(=O)Nc3c(Br)cc(Br)cc32)cc(C(C)(C)C)c1OCc1ccccc1 [10733/A05],-23.3%,-4.0%
COc1c(Br)cc(C=C2C(=O)Nc3ccc(S(=O)(=O)N4CCOCC4)cc32)cc1C(C)(C)C [10732/F07],31.0%,38.6%
Cc1cc(C=C2C(=O)Nc3ccc(Br)c(C)c32)cc(C)c1OCc1ccccc1 [10733/C07],1.2%,4.6%
CC(C)c1cc(C=C2C(=O)Nc3ccc(S(=O)(=O)Nc4ccc(C(F)(F)F)cc4)cc32)cc(C(C)C)c1Oc1ccccc1 [10732/E04],15.8%,29.5%
CC(C)(C)c1cc(C=C2C(=O)Nc3ccc(S(=O)(=O)N4CCOCC4)cc32)ccc1OCc1ccccc1 [10732/F06],11.6%,0.2%
COc1c(C)cc(C=C2C(=O)Nc3c(Br)cc(Br)cc32)cc1C [10733/A06],-16.6%,-24.3%
COc1c(I)cc(C=C2C(=O)Nc3ccc(S(=O)(=O)Nc4ccc(C(F)(F)F)cc4)cc32)cc1C(C)(C)C [10732/E11],16.2%,47.7%
COc1c(O)ccc(C=C2C(=O)Nc3ccc(I)cc32)c1[N+](=O)[O-] [10733/B11],22.5%,23.7%
